Key:
Assay type in all cases: biochemical
serum oxidases [1] = assay: Library screening with serum, ESI-MS monitoring of oxidized products; details: acetate buffer pH 5.0, 37° C., 1 h
Protocol: The chemical library dissolved in DMSO individually to give stock concentrations of 1 mg/mL. Each chemical was placed in individual well and incubated with serum sample in acetate buffer (0.1M, pH 5.0) at 37° C. for 1 h. Additional DMSO was provided to inhibit oxidase activity. High-resolution ESI mass spectra (Bruker Daltonics spectrometer) was utilized to monitor the oxidized products.
To screen for suitable compounds as Cp substrates for MS analysis, an approach of combinatorial library screening in primary MS analysis was used to find out oxidized products and their relationship with initial substrates. Briefly, a platform for rapidly and conveniently screening various small molecules was established. In the chemical library collection as obtained, including natural products, synthetic compounds and heterocyclic molecules, each member was parallelly incubated with a certain small amount of serum for a desired reaction time. After quenching each enzyme reaction, analysis of the reaction products with ESI-MS was performed. Hits with reliable, major, and distinct oxidized product peaks in ESI-MS analysis were selected for further studies (FIG. 1).

ceruloplasmin [2] = biological target: T1, ceruloplasmin (Homo sapiens, UniProt P00450); assay: Ceruloplasmin spike-in experiment in normal serum, LC-MS/MS
T1 sequence (P00450 20-1065): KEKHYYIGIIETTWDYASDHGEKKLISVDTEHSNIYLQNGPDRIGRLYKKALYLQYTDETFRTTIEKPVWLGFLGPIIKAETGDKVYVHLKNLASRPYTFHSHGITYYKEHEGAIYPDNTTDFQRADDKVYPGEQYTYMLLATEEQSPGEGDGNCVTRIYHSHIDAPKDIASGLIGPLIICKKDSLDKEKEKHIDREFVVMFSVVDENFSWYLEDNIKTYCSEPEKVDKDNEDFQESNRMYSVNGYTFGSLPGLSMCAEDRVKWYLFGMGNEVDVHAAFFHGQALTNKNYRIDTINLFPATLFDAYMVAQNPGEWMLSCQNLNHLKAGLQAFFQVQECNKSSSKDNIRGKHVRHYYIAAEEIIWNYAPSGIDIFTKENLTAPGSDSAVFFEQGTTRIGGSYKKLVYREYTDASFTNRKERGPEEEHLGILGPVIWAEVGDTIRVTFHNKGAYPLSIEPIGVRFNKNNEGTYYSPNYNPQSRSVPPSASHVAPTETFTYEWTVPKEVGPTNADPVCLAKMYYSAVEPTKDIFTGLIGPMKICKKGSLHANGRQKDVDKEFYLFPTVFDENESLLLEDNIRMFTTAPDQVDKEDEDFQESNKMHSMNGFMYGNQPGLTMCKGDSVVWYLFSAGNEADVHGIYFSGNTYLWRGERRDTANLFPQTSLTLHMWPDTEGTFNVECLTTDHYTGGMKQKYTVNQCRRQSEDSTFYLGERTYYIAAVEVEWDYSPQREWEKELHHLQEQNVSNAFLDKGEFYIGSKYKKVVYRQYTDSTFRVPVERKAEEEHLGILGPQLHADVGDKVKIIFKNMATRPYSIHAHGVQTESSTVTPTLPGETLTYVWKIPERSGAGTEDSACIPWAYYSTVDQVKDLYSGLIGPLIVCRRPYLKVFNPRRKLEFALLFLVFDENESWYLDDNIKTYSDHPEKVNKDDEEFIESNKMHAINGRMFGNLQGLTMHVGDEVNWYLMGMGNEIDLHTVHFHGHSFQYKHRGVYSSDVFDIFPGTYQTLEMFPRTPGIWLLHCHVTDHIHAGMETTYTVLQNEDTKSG
Protocol: To understand the relation between ceruloplasmin and serum oxidases and the reactivity of modified substrates and ceruloplasmin, spike-in experiment was performed. […] The assay was incubated at 37° C. for 30 mins, and quenching the reaction by DMSO. The final products were analyzed by LC-MS/MS.

ceruloplasmin [3] = biological target: T1, ceruloplasmin; assay: Cp-depletion test (serum filtered to remove proteins larger than 100 kDa), LCMS; parameters: Ceruloplasmin is made in the liver and then secreted into the blood; from tissue; host or cells: serum / plasma (normal adult, newborn; Cp-depleted serum by 100 kDa filtration as comparison); details: Cp-depleted serum 5 μL, 30 min, 37° C.
Protocol: Normal adult serum and plasma were controls. After incubation, the DMSO quenched mixture were 100-folds diluted and detected by LCMS.
The Cp depletion serum was obtained by size selection method. Briefly, the centrifuge filter was applied in normal serum to eliminate those proteins larger than 100 kDa, including Cp (˜130 kDa).

serum oxidases [4] = assay: LC-MS/MS based serum oxidase activity assay
Protocol: Samples were detected by LC-ESI-MS on a Velos Pro dual-pressure linear ion trap mass spectrometer (Thermo Fisher Scientific, San Jose, CA) equipped with an Ultimate 3000 RSLC system from Dionex (Dionex Corporation, Sunnyvale, CA), using a Xbridge C18 (HPLC column 1 mm×15 cm i.d., 3.5 μm particle size, 130 Å pore size). Briefly, the gradient employed was 50% buffer B at 5 min to 98% buffer B at 23 min with a flow rate of 50 μL/min, where buffer A was 0.1% formic acid/H2O and buffer B was 0.1% formic acid/acetonitrile. All spectra were acquired in the mass range m/z 200-2000. Electrospray voltage was maintained at 4.0 kV and capillary temperature was set at 275° C.
The stock solution of modified amino carbazoles (125 μM, 20 μL) were incubated with 5 μL of serum (estimate<10 nM of serum oxidases) in sodium acetate buffer (0.1M, pH 5.0, 5 μL) at 37° C. for 30 min. The serum oxidase oxidation was quenched by DMSO (90 μL), followed detection of LC-MS/MS.
The amount of the oxidized product was determined according to the area under the peak by integration. The specific Cp activity unit was calculated by the formula: Peak area of oxidized product MS2 ion/serum volume (μL).
The addition of DMSO was to quench the serum enzyme activity. After centrifugation, the supernatant of the mixture was detected by LC-MS/MS.

ceruloplasmin [5] = biological target: T1, ceruloplasmin; assay: Cp activity in newborn plasma, LCMS; parameters: Ceruloplasmin is made in the liver and then secreted into the blood; from tissue; host or cells: serum / plasma (normal adult, newborn; Cp-depleted serum by 100 kDa filtration as comparison); details: without dilution
Text: The DMSO quenched mixture were detected by LCMS without dilution.

ceruloplasmin [6] = biological target: T1, ceruloplasmin; assay: Colorimetric methods for ceruloplasmin oxidative activity; parameters: Ceruloplasmin is made in the liver and then secreted into the blood; from tissue; host or cells: serum / plasma (normal adult, newborn; Cp-depleted serum by 100 kDa filtration as comparison); details: serum volume small than 10 μL
Text: FIGS. 8A and 8B show the limitations of detection by current methods known in the art. […] The specific activity units of Cp are not reliable in lower volume of serum.
The limitations of current methods and available commercial kits were described. In current method, the colorimetric methods using p-phenylenediamine (PPD) and o-dianisidine dihydrochloride (ODD) as substrates are used for quantification of ceruloplasmin oxidative activity. […] The activity of ceruloplasmin were positively correlated to absorbance. However, the correlation of absorbance and serum volume small than 10 μL was poor (FIG. 8).

SMILES: NCCc1c[nH]c2ccc(O)cc12 [ACK-1000, Serotonin (or 5-Hydroxytryptamine)]
- products generated when reacting with serum oxidases (serum oxidases [1]): specific oxidized products

SMILES: CCCCn1c2ccccc2c2cc(N)ccc21 [ACK-1001, 9-buyl-9H-carbazol-3-amine]
- products generated when reacting with serum oxidases (serum oxidases [1]): specific oxidized products

SMILES: CCn1c2ccccc2c2cc(N)ccc21 [ACK-1006, 9-ethyl-9H-carbazol-3-amine]
- oxidation of substrate by recombinant ceruloplasmin (ceruloplasmin [2]): could be oxidized by recombinant ceruloplasmin
- oxidized product detected with Cp depleted serum (ceruloplasmin [3]): trace amount
- signal intensity of m/z transition of the oxidized product (serum oxidases [4]; after 1000-fold dilution, serum less than 5 μL): > 10^3
- reaction time at which oxidized product reached highest amount (serum oxidases [4]; time-dependent assay): 30 min
- LCMS signal of oxidized substrate in new born plasma (ceruloplasmin [5]; new born plasma 5 μL, 30 min, 37° C.): > 10^5
- signal of oxidative substrate in CP-depletion plasma compared with newborn plasma (ceruloplasmin [5]): significantly lower

SMILES: COc1cc(-c2ccc(N)c(OC)c2)ccc1N.Cl.Cl [o-dianisidine dihydrochloride (ODD), o-dianisidine dihydrochloride]
- correlation of absorbance and serum volume (ceruloplasmin [6]): poor

SMILES: Nc1ccc(N)cc1 [p-phenylenediamine (PPD), p-phenylenediamine]
- correlation of absorbance and serum volume (ceruloplasmin [6]): poor

Reference: patent publication US20250369031A1, “METHODS OF DETERMINING CERULOPLASMIN ACTIVITY AND APPLICATIONS THEREOF” (ACADEMIA SINICA, priority 2022, published 2025)
